This passage reports IC50 results from ChEMBL document CHEMBL1138121 (Bioorg Med Chem Lett, 2006).

This assay has as its target T1, Glycogen phosphorylase, muscle form (Oryctolagus cuniculus, UniProt P00489).
T1 sequence (P00489 whole entry): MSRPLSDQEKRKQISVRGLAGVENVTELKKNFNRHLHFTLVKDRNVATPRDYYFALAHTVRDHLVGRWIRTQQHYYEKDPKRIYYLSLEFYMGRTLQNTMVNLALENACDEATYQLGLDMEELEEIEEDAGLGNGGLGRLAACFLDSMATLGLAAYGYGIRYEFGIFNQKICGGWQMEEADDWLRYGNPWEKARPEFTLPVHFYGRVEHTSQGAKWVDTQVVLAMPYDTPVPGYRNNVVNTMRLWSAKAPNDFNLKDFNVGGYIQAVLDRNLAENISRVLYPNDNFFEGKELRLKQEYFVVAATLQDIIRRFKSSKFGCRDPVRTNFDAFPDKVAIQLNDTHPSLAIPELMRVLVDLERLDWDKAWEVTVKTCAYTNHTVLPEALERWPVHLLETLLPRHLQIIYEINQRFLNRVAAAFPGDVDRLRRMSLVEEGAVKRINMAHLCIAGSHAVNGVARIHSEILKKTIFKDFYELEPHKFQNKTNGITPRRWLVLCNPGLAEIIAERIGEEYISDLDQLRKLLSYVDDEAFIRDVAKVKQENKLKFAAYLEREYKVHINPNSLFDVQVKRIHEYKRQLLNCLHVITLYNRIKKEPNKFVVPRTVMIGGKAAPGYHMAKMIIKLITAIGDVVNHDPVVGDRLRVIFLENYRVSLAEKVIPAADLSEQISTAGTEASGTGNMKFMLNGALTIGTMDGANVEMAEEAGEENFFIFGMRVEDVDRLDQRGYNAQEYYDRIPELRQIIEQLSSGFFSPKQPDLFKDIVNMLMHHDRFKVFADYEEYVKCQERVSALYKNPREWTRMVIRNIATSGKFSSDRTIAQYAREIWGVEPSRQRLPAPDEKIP
The assay can be described thus: Inhibitory activity against rabbit muscle GPa. Format: tissue-based, Muscle tissue.
As a reminder, the IC50 is the concentration that gives 50% inhibition. High values mean lower potency, low ones higher potency. Consider `CC(=O)O[C@@H]1C[C@]2(C)[C@H]3CC=C4[C@@H]5CC(C)(C)CC[C@]5(C(=O)OCc5ccccc5)CC[C@@]4(C)[C@]3(C)CC[C@H]2C(C)(C)C1=O`, for which the IC50 was found to be 29 µM. In the case of `CCN(CC)CCCCOC(=O)[C@]12CCC(C)(C)C[C@H]1C1=CC[C@@H]3[C@@]4(C)C[C@@H](O)[C@H](O)C(C)(C)[C@@H]4CC[C@@]3(C)[C@]1(C)CC2` it was 62 µM; in that of `CC1(C)CC[C@]2(C(=O)OCn3cccn3)CC[C@]3(C)C(=CC[C@@H]4[C@@]5(C)C[C@@H](O)[C@H](O)C(C)(C)[C@@H]5CC[C@]43C)[C@@H]2C1`, 66 µM; in that of `CC1(C)CC[C@]2(C(=O)OCCBr)CC[C@]3(C)C(=CC[C@@H]4[C@@]5(C)C[C@@H](O)[C@H](O)C(C)(C)[C@@H]5CC[C@]43C)[C@@H]2C1`, 50 µM. In the case of `CC1(C)CC[C@]2(C(=O)OCc3ccccc3)CC[C@]3(C)C(=CC[C@@H]4[C@@]5(C)C[C@@H](O[Si](C)(C)C(C)(C)C)[C@H](O)C(C)(C)[C@@H]5CC[C@]43C)[C@@H]2C1` it was 1710 µM. The value for `CC(=O)O[C@@H]1C[C@]2(C)[C@H]3CC=C4[C@@H]5CC(C)(C)CC[C@]5(C(=O)OCc5ccccc5)CC[C@@]4(C)[C@]3(C)CC[C@H]2C(C)(C)[C@@H]1O` was 63 µM; that for `CC1(C)CC[C@]2(C(=O)OCC(=O)O)CC[C@]3(C)C(=CC[C@@H]4[C@@]5(C)C[C@@H](O)[C@H](O)C(C)(C)[C@@H]5CC[C@]43C)[C@@H]2C1` was 1650 µM. `CC1(C)CC[C@]2(C(=O)OCCN3CCOCC3)CC[C@]3(C)C(=CC[C@@H]4[C@@]5(C)C[C@@H](O)[C@H](O)C(C)(C)[C@@H]5CC[C@]43C)[C@@H]2C1` yielded an IC50 of 43 µM. On to `CC1(C)CC[C@]2(C(=O)OCCO)CC[C@]3(C)C(=CC[C@@H]4[C@@]5(C)C[C@@H](O)[C@H](O)C(C)(C)[C@@H]5CC[C@]43C)[C@@H]2C1`, for which inhibition was half-maximal at 153 µM (IC50).

In the case of `CCOC(=O)COC(=O)[C@]12CCC(C)(C)C[C@H]1C1=CC[C@@H]3[C@@]4(C)C[C@@H](O)[C@H](O)C(C)(C)[C@@H]4CC[C@@]3(C)[C@]1(C)CC2`, the IC50 was found to be 19 µM. In the case of `CC1(C)CC[C@]2(C(=O)OCCCCBr)CC[C@]3(C)C(=CC[C@@H]4[C@@]5(C)C[C@@H](O)[C@H](O)C(C)(C)[C@@H]5CC[C@]43C)[C@@H]2C1` it was 7 µM; in that of `CC1(C)CC[C@]2(C(=O)OCc3ccccc3)CC[C@]3(C)C(=CC[C@@H]4[C@@]5(C)C[C@@H](O)[C@@H](O)C(C)(C)[C@@H]5CC[C@]43C)[C@@H]2C1`, 66 µM. The value for `CC1(C)CC[C@]2(C(=O)OCCCCN3CCCCC3)CC[C@]3(C)C(=CC[C@@H]4[C@@]5(C)C[C@@H](O)[C@H](O)C(C)(C)[C@@H]5CC[C@]43C)[C@@H]2C1` was 580 µM; that for `CC(=O)O[C@@H]1C[C@]2(C)[C@H]3CC=C4[C@@H]5CC(C)(C)CC[C@]5(C(=O)OCc5ccccc5)CC[C@@]4(C)[C@]3(C)CC[C@H]2C(C)(C)[C@H]1O` was 80 µM. The compound `CC1(C)CC[C@]2(C(=O)OCc3ccccc3)CC[C@]3(C)C(=CC[C@@H]4[C@@]5(C)C[C@@H](O[Si](C)(C)C(C)(C)C)[C@@H](O)C(C)(C)[C@@H]5CC[C@]43C)[C@@H]2C1` had an IC50 of 580 µM.

As for `CC1(C)CC[C@]2(C(=O)OCc3ccccc3)CC[C@]3(C)C(=CC[C@@H]4[C@@]5(C)C[C@@H](O)C(=O)C(C)(C)[C@@H]5CC[C@]43C)[C@@H]2C1`, half-maximal inhibition (IC50) was put at 29 µM. In the case of `CC1(C)CC[C@]2(C(=O)OCc3ccccc3)CC[C@]3(C)C(=CC[C@@H]4[C@@]5(C)C=C(O)C(=O)C(C)(C)[C@@H]5CC[C@]43C)[C@@H]2C1`, the midpoint of inhibition, the IC50, lay at 30 µM. The value for `CC1(C)CC[C@]2(C(=O)OCCN3CCCCC3)CC[C@]3(C)C(=CC[C@@H]4[C@@]5(C)C[C@@H](O)[C@H](O)C(C)(C)[C@@H]5CC[C@]43C)[C@@H]2C1` was 31 µM. The value for `CCN(CC)CCOC(=O)[C@]12CCC(C)(C)C[C@H]1C1=CC[C@@H]3[C@@]4(C)C[C@@H](O)[C@H](O)C(C)(C)[C@@H]4CC[C@@]3(C)[C@]1(C)CC2` was 51 µM; that for `CC1(C)CC[C@]2(C(=O)OCCCCN3CCOCC3)CC[C@]3(C)C(=CC[C@@H]4[C@@]5(C)C[C@@H](O)[C@H](O)C(C)(C)[C@@H]5CC[C@]43C)[C@@H]2C1` was 121 µM.

Turning to `COC(=O)[C@]12CCC(C)(C)C[C@H]1C1=CC[C@@H]3[C@@]4(C)C[C@@H](O)[C@H](O)C(C)(C)[C@@H]4CC[C@@]3(C)[C@]1(C)CC2` [MASLINIC ACID METHYL ESTER], the IC50 was 393 µM.
